In patent US7776863B2, “Methods of treating HIV infection” (priority 2004, dated 2010):

Tested on: HIV-1 LAI
Experiment: microbe, parasite or virus in culture
Conditions: for Combination Indices at % HIV Inhibition (Confidence Interval) 50% / Combination Indices at % HIV Inhibition (Confidence Interval) 75% / Combination Indices at % HIV Inhibition (Confidence Interval) 90%: 95% confidence interval in parentheses; for Overall Result (combined anti-HIV effect): all ratios, MT-2 cells, HIV-1 LAI; for EC50: Human immunodeficiency virus 1, MT2, 120 h
Experimental: Virus and cell lines. The T-cell lines, MT-2 and PM-1 were obtained through the AIDS Research and Reference Reagent Program, NIAID, and were contributed by Dr. D. Richman and Dr. R. Gallo, respectively. Both cell lines were cultured in RPMI 1640 medium supplemented with 10% fetal bovine serum, 2 mM L-glutamine and sub-cultured twice a week. The LAI strain of HIV-1 was obtained from the Fred Hutchinson Cancer Research Center, and the Bal strain was from NIH. Both virus stocks were amplified and titered in MT-2 cells (LAI) and PM-1 cells (Bal) using a virus infectivity assay.
Drug Susceptibility and Cytotoxicity Assays. For drug susceptibility assays, MT-2 cells were infected with HIV-1 LAI (or PM-1 cells with HIV-1 Bal) at an MOI of 0.005, and seeded into 96-well microtiter plates (0.1×10^6 cells/ml) containing serial dilutions of test compounds. […] Each drug ratio consisted of an array of 3-fold serial dilutions, and was performed in quadruplicate. The plates were incubated at 37° C./5% CO2. The MT-2 cells infected with HIV-1 LAI were incubated for 5 days. On day-five post-infection, 20 μl from each well was harvested and quantitated by a reverse transcriptase (RT) assay, or in samples involving non-nucleoside RT inhibitors, an MTS assay. The PM-1 cells infected with HIV-1 Bal and used for studying the combinations with CCR5 inhibitors were incubated for six days. On day-six post-infection, 20 μl from each well was harvested, 20- and 50-fold diluted and quantitated by p24 assay. Cytotoxicity assays were performed using uninfected cells, exposed to the same drug combinations, and incubated for six days. Cell viability was determined by an MTS assay. The CC50 values were calculated by using the exponential form of the median effect equation as mentioned below for calculation of EC50.
Analysis of Drug Combination Effects. For determination of CI values, drugs were diluted in a fixed ratio and multiple ratios were analyzed. The drug serial dilutions spanned a range of concentrations near the EC50 value of each compound, so that equivalent antiviral activities could be compared. Concentration-response curves were estimated for each individual drug and every combination using the median-effect equation. The equation was fit using a nonlinear regression routine (Proc Nlin) in PC SAS version 8.01 (SAS Institute Inc., SAS Version 8.01, Cary, N.C.: SAS Institute Inc., 1990).
In this equation, Fa stands for “fraction affected,” and represents the fraction of the viral load that has been inactivated. […] ED50 is drug concentration that is expected to reduce the amount of virus by 50%, and m is a parameter that reflects the slope of the concentration-response curve.
To assess antiviral effects of different drug combination treatments, combination indices (CIs) were calculated according to Chou and Rideout. The combination index was computed as CI=[D]1/[Dm]1+[D]2/[Dm]2
In this equation [Dm]1 and [Dm]2 are the concentrations of drugs that would individually produce a specific level of effect, while [D]1 and [D]2 are the concentrations of drugs in combination that would produce the same level of effect.
Theoretically, additivity is implied if the CI is equal to one, synergy if the CI is less than one, and antagonism if the CI is greater than one. […] At best, we can construct a range that contains the likely values for the CI, given the noise in the data. In this report, these ranges are reported in parentheses next to each point estimate of the CI. […] If the range fell entirely above 1.0, we would infer antagonistic behavior. If the range were to include 1.0, we would infer additivity.
In carrying out the combination experiments below, the EC50 for Compound 1 and each comparator compound was determined during the course of each study, and used in the subsequent data analysis.

[1] = Compound 1 + named drug, EC50 ratio 1:1 (Compound 1:comparator)
[2] = Compound 1 + named drug, EC50 ratio 1:2.5 (Compound 1:comparator)
[3] = Compound 1 + named drug, EC50 ratio 2.5:1 (Compound 1:comparator)

EC50 [nM]	Compound	Combination Indices at % HIV Inhibition (Confidence Interval) 50% [1]	Combination Indices at % HIV Inhibition (Confidence Interval) 75% [1]	Combination Indices at % HIV Inhibition (Confidence Interval) 90% [1]	Combination Indices at % HIV Inhibition (Confidence Interval) 50% [2]	Combination Indices at % HIV Inhibition (Confidence Interval) 75% [2]	Combination Indices at % HIV Inhibition (Confidence Interval) 90% [2]	Combination Indices at % HIV Inhibition (Confidence Interval) 50% [3]	Combination Indices at % HIV Inhibition (Confidence Interval) 75% [3]	Combination Indices at % HIV Inhibition (Confidence Interval) 90% [3]	Overall Result (combined anti-HIV effect) (Compound 1 + named drug)	Combined effect at 90% inhibition level (Compound 1 + named drug)	Combined effect at the 50 and 75% inhibition levels (Compound 1 + named drug)	Overall Result (combined anti-HIV effect) (Compound 1 + named drug, listed as nevapiradine)
1	Cc1cn([C@H]2C[C@H](N=[N+]=[N-])[C@@H](CO)O2)c(=O)[nH]c1=O [Zidovudine, zidovudine]	0.25 (0.17, 0.34)	0.53 (0.29, 0.78)	1.13 (0.24, 2.02)	0.46 (0.36, 0.56)	0.52 (0.36, 0.68)	0.59 (0.29, 0.89)	0.37 (0.28, 0.47)	0.49 (0.32, 0.67)	0.66 (0.28, 1.05)	Additive-			
3	CC(C)(C)NC(=O)[C@@H]1CN(Cc2cccnc2)CCN1C[C@@H](O)C[C@@H](Cc1ccccc1)C(=O)N[C@H]1c2ccccc2C[C@H]1O [Indinavir, indinavir]	0.41 (0.26, 0.56)	0.69 (0.34, 1.04)	1.59 (0.29, 2.90)	0.30 (0.18, 0.41)	0.62 (0.32, 0.92)	1.96 (0.29, 3.64)	0.05 (0.03, 0.06)	0.16 (0.13, 0.20)	0.68 (0.39, 0.98)	Additive-			
5	c1cc(CN2CCCNCCNCCCNCC2)ccc1CN1CCCNCCNCCCNCC1 [AMD-3100]	0.44 (0.29, 0.60)	0.62 (0.31, 0.92)	0.98 (0.21, 1.76)	0.56 (0.42, 0.70)	0.54 (0.35, 0.73)	0.66 (0.29, 1.02)	0.52 (0.36, 0.68)	0.61 (0.35, 0.88)	0.77 (0.24, 1.31)		tendency to additivity	strongly synergistic	
11	CC(C)CN(C[C@@H](O)[C@H](Cc1ccccc1)NC(=O)O[C@H]1CCOC1)S(=O)(=O)c1ccc(N)cc1 [Amprenavir, amprenavir]	0.14 (0.11, 0.17)	0.35 (0.26, 0.45)	0.87 (0.46, 1.28)	0.13 (0.09, 0.17)	0.27 (0.17, 0.38)	0.58 (0.19, 0.97)	0.46 (0.32, 0.60)	0.79 (0.46, 1.11)	1.33 (0.42, 2.25)	Additive-			
34	Nc1ccn([C@H]2CC[C@@H](CO)O2)c(=O)n1 [Zalcitabine, zalcitabine]	0.58 (0.46, 0.69)	0.61 (0.43, 0.78)	0.69 (0.39, 1.00)		0.56 (0.44, 0.68)	0.65 (0.43, 0.86)	0.24 (0.22, 0.26)	0.18 (0.16, 0.20)	0.14 (0.12, 0.17)	Synergistic			

The next lines start with the compound.

Compound	EC50 [nM]	Combination Indices at % HIV Inhibition (Confidence Interval) 50% [1]	Combination Indices at % HIV Inhibition (Confidence Interval) 75% [1]	Combination Indices at % HIV Inhibition (Confidence Interval) 90% [1]	Combination Indices at % HIV Inhibition (Confidence Interval) 50% [2]	Combination Indices at % HIV Inhibition (Confidence Interval) 75% [2]	Combination Indices at % HIV Inhibition (Confidence Interval) 90% [2]	Combination Indices at % HIV Inhibition (Confidence Interval) 50% [3]	Combination Indices at % HIV Inhibition (Confidence Interval) 75% [3]	Combination Indices at % HIV Inhibition (Confidence Interval) 90% [3]	Overall Result (combined anti-HIV effect) (Compound 1 + named drug)	Combined effect at 90% inhibition level (Compound 1 + named drug)	Combined effect at the 50 and 75% inhibition levels (Compound 1 + named drug)	Overall Result (combined anti-HIV effect) (Compound 1 + named drug, listed as nevapiradine)
Nc1nc(NC2CC2)c2ncn([C@H]3C=C[C@@H](CO)C3)c2n1 [Abacavir, abacavir]	326	0.69 (0.49, 0.89)	0.77 (0.46, 1.09)	0.87 (0.30, 1.44)	0.56 (0.45, 0.67)		0.48 (0.27, 0.68)	0.10 (0.05, 0.14)	0.27 (0.16, 0.39)		Additive-			
CC(C)(C)NC(=O)[C@@H]1C[C@@H]2CCCC[C@@H]2CN1C[C@@H](O)[C@H](Cc1ccccc1)NC(=O)[C@H](CC(N)=O)NC(=O)c1ccc2ccccc2n1 [Saquinavir, saquinavir]	5	0.31 (0.28, 0.33)	0.31 (0.28, 0.35)	0.32 (0.26, 0.38)	0.60 (0.52, 0.67)	0.67 (0.56, 0.79)	0.77 (0.56, 0.97)	0.39 (0.33, 0.45)	0.59 (0.46, 0.72)	0.90 (0.58, 1.22)	Synergistic			
Nc1ccn([C@@H]2CS[C@H](CO)O2)c(=O)n1 [Lamivudine, lamivudine]		0.75 (0.45, 1.05)	0.79 (0.35, 1.23)	0.90 (0.11, 1.69)	0.13 (0.10, 0.16)	0.21 (0.16, 0.27)	0.39 (0.21, 0.58)	0.14 (0.10, 0.17)	0.26 (0.18, 0.33)	0.49 (0.22, 0.75)				
Cc1ccnc2c1NC(=O)c1cccnc1N2C1CC1 [Nevirapine, nevirapine]	107	0.19 (0.15, 0.23)	0.22 (0.16, 6.28)	0.26 (0.15, 0.38)	0.48 (0.35, 0.62)	0.66 (0.40, 0.92)	0.92 (0.35, 1.49)	0.58 (0.48, 0.67)	0.99 (0.76, 1.22)	1.71 (1.09, 2.33)	Additive-			additive-synergystic
